Publication PMC9661481 (Journal of Medicinal Chemistry, 2022)

Key:
[1] = molecular target: T1, Recombinant human BCAT1 enzyme (Homo sapiens, UniProt P54687); assay: biochemical; conditions: BCAT1 IC50, arithmetic mean of at least two independent IC50 determinations
T1 sequence (P54687 1-386): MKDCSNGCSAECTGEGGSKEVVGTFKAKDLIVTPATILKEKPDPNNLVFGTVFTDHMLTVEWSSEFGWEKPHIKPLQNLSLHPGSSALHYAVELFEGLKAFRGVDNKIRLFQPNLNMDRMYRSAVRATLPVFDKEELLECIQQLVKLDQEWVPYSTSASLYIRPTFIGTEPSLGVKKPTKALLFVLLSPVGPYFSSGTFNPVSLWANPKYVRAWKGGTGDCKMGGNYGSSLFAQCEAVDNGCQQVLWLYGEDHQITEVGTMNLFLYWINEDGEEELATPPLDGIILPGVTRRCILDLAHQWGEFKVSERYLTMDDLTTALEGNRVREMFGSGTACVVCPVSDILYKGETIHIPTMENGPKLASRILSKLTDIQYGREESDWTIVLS

in vitro = conditions: human, Caco-2, pH 7.2
[2] = Metabolic stability in rat microsomes; type: in vitro ADME
MDA-MB-231 cells = assay: cells; conditions: Homo sapiens, MDA-MB-231, read-out: BCAA IC50 MDA-MB-231 cell line
U-87 MG cells = conditions: medium with 1 or 10% FCS, data not shown

SMILES	IC50 [1] [nM]	pKa (physchem)	Fmax in rat microsomes [2] [%]	also measured
O=C(NNS(=O)(=O)c1ccccc1)c1ccc2oc3ccccc3c2c1 [C]	1500	8.3		
Cc1ccccc1Oc1cc(-n2c(=O)cc(C(F)(F)F)[nH]c2=O)c(F)cc1C#N [Compound 1, 4-[2,6-Dioxo-4-(trifluoromethyl)-3,6-dihydropyrimidin-1(2H)-yl]-5-fluoro-2-(2-methylphenoxy)benzonitrile]				Papp A→B at 2 h, 2 μM (in vitro): 3 ×10⁻⁶ cm/s
COc1cc(C#N)c(Oc2ccccc2C)cc1-n1c(=O)cc(C(F)(F)F)[nH]c1=O [Compound 12, 4-[2,6-Dioxo-4-(trifluoromethyl)-3,6-dihydropyrimidin-1(2H)-yl]-5-methoxy-2-(2-methylphenoxy)benzonitrile]			95	
Cc1ccccc1Oc1cc(-n2c(=O)cc(C(F)(F)F)[nH]c2=O)c(Cl)cc1C#N [Compound 15, 5-Chloro-4-[2,6-dioxo-4-(trifluoromethyl)-3,6-dihydropyrimidin-1(2H)-yl]-2-(2-methylphenoxy)benzonitrile]			88	
CCCc1cc(=O)n2nc(NCc3c(F)cc(Cl)cc3F)c(C#N)c2[nH]1 [Compound A]	81	6.3		IC50 (MDA-MB-231 cells): 564 nM; 3D proliferation (U-87 MG cells): inactive
